US4363812A, “3-(Tetrazol-5-yl), 4-methyl-8-alkoxy coumarins and anti-allergic compositions thereof” (priority 1978, dated 1982)
Read-outs that look alike come from different tables or passages of the source.

What was measured:
[1] = tested on: passive cutaneous anaphylaxis (PCA) mediated by homocytotropic antibodies (HTA); assay: passive cutaneous anaphylaxis (PCA) test, oral, in rats; assay type: in vivo, rat (Wistar); conditions: Rattus norvegicus
Protocol: With respect to the present 3-(1H-tetrazol-5-yl)coumarin derivatives, there was tested antiallergic activity concerning passive cutaneous anaphylaxis (PCA) mediated by homocytotropic antibodies (HTA) in rats.
(i) Preparation of antisera
2,4-Dinitrophenyl-coupled ascaris extract (DNP-As) used as antigen, was prepared according to the methods of Strejan et al [cf. J. Immunol., Vol. 98, 893(1967)] and Eisen [cf. J. Amer. Chem. Soc., Vol. 75. 4593(1953)]. Antisera containing HTA were prepared in rats according to the method of Tada and Okumura [cf. J. Immunol., Vol. 106, 1002(1971)] as follows:
Female wister rats weighing 180 to 200 g. were splenectomized and several days later immunized by injecting into all four footpads a total of 1 mg. of DNP-As mixed with 10^10 Bordetella pertussis. After 5 days, 0.5 mg. of DNP-As alone was injected subcutaneously into the back of rats. Eight days after the first immunization, blood was collected by aortic puncture under ether anaesthesea and antisera obtained by these procedures were pooled and stored at -80° C.
The titer of the pooled autiserum was determined in rats by the 72 hr. PCA which method was described in the following item (ii), i.e. the highest dilution of antiserum producing a diameter of approximately 5 mm. was usually 1:500.
(ii) Assessment of PCA in rats
Normal wister rats weighing 140 to 160 g. were sensitized passively by injection intradermal on the shaved back skin 0.05 ml. of the diluted antisera (1:30). After 72 hours, the animals were injected intravenously 1 ml. of physiological salt solution containing 2 mg. DNP-As and 2.5 mg. Evans' blue.
The present compounds to be tested were given orally 30 minutes before antigen challenge. The animals were exsanguinated 30 minutes after challenge with the antigens and the skins were exfoliated. The intensities of PCA were evaluated by measuring the amount of leaked dye. The amount of dye leaked as a result of PCA was extracted according to the method of Harada et al [cf. Jpn. J. Allergol., Vol. 15, 1(1966)] and measured photometrically.

[2] = acute toxicity, oral, in mice; assay type: in vivo; conditions: mouse, in vivo, po
Protocol: Moreover, the introduction of substituent groups such as an alkoxyl group, an alkenyloxy group and hydroxyl group to the 5, 6, 7 or 8 position of the coumarin ring brings the decrease of toxicity.
With respect to the present 3-(1H-tetrazol-5-yl)coumarin derivatives, there was tested acute toxicity in mice.
After normal female Slc: ddy mice 4 weeks old were purchased and fed preliminarily in this lavoratory for a week, these mice weighing 25-27 g. were used in the test. The present compounds to be tested, were suspended in a 10% gum arabic solution and administered orally […]. body weight to mice. Each dose level was given to a group of ten animals and the survivors were kept under observation for 6 days. The numbers of dead animals were counted and the LD50 values in mg./kg. body weight were calculated by the method of Litchfield-Wilcoxon.

[3] = antiallergic activity (general statement); conditions: compared with coumarin derivatives of Japanese Publication No. 64273/1975
[4] = Table 3, oral 30 minutes before antigen challenge, rats, lowest dose significantly decreasing leaked dye vs control, read-out: MED (minimum effect dose)
[5] = Table 4, oral, female Slc: ddy mice, 6 days observation, Litchfield-Wilcoxon, read-out: LD50
[6] = po, read-out: MED (minimum effective dose)
[7] = read-out: MED (minimum effect dose)
[8] = LD50 (50% lethal dose), Table 1, orally in mice

Structure (SMILES) | minimal effective dose [1, 4] [mg/kg] | LD50 at 144 h [2, 5] [mg/kg] | minimal effective dose [1, 6] [mg/kg] | minimal effective dose [1, 7] [mg/kg] | LD50 at 144 h [2, 8] [mg/kg] | antiallergic activity [3]
CC(C)=CCCC(C)=CCCC(C)=CCOc1cccc2cc(-c3nnn[nH]3)c(=O)oc12 [Example 18, 8-Farnesyloxy-3-(1H-tetrazol-5-yl)coumarin] | 6.25 | 1000 to 2000 | – | – | – | –
CCCCCCCCCCCCCCCCCCOc1cccc2cc(-c3nnn[nH]3)c(=O)oc12 [Example 15, 8-n-Octadecyloxy-3-(1H-tetrazol-5-yl)coumarin] | 6.25 | 2000 to 3000 | – | – | – | –
CCCCCOc1cccc2cc(-c3nnn[nH]3)c(=O)oc12 [Example 1, 8-n-Pentyloxy-3-(1H-tetrazol-5-yl)coumarin] | – | 1330 | 1.56 | 1.56 | 1330 | –
CCOc1cc(OCC)c2cc(-c3nnn[nH]3)c(=O)oc2c1 [Example 30, 5,7-Diethoxy-3-(1H-tetrazol-5-yl)coumarin] | 12.5 | 2000 to 3000 | – | – | – | –
CCCCCCCOc1cccc2cc(-c3nnn[nH]3)c(=O)oc12 [Example 11, 8-n-Heptyloxy-3-(1H-tetrazol-5-yl)coumarin] | 1.56 | 2000 to 3000 | – | – | – | –
COc1ccc2cc(-c3nnn[nH]3)c(=O)oc2c1C [Example 24, 7-Methoxy-8-methyl-3-(1H-tetrazol-5-yl)coumarin] | 6.25 | 300 to 1000 | – | – | – | –
Cc1cc(OC(C)C)c2oc(=O)c(-c3nnn[nH]3)cc2c1 [Example 22, 8-Isopropoxy-6-methyl-3-(1H-tetrazol-5-yl)coumarin] | – | 2200 | 1.56 | 1.56 | 2200 | –
Cc1c(-c2nnn[nH]2)c(=O)oc2c(Cl)cccc12 [Compound I, reference compound] | – | – | 6.25 | – | 1040 | –
CCCOc1cccc2cc(-c3nnn[nH]3)c(=O)oc12 [Example 5, 8-n-Propoxy-3-(1H-tetrazol-5-yl)coumarin] | 6.25 | 2000 to 3000 | – | – | – | –
CCc1cc2cc(-c3nnn[nH]3)c(=O)oc2cc1OC [Example 23, 6-Ethyl-7-methoxy-3-(1H-tetrazol-5-yl)coumarin] | 1.56 | 500 to 1000 | – | – | – | –
C=CCOc1cc(C)cc2cc(-c3nnn[nH]3)c(=O)oc12 [Example 26, 8-Allyloxy-6-methyl-3-(1H-tetrazol-5-yl)coumarin] | 1.56 | 2000 to 3000 | – | – | – | –
CC(C)Oc1cccc2cc(-c3nnn[nH]3)c(=O)oc12 [Example 6, 8-Isopropoxy-3-(1H-tetrazol-5-yl)coumarin] | – | 2250 | 1.56 | 1.56 | 2250 | –
CCOc1cc(C)cc2cc(-c3nnn[nH]3)c(=O)oc12 [Example 20, 8-Ethoxy-6-methyl-3-(1H-tetrazol-5-yl)coumarin] | – | 2360 | 1.56 | 1.56 | 2360 | –
O=c1oc2c(O)cccc2cc1-c1nnn[nH]1 [Example 19, 8-Hydroxy-3-(1H-tetrazol-5-yl)coumarin] | 25 | 2000 to 3000 | – | – | – | –
O=c1oc2ccccc2cc1-c1nnn[nH]1 | – | – | – | – | – | stronger antiallergic activity
Cc1ccc2oc(=O)c(-c3nnn[nH]3)c(C)c2c1 [J, reference compound] | – | – | 25 | – | 533 | –

Structure (SMILES) | minimal effective dose [1, 4] [mg/kg] | LD50 at 144 h [2, 5] [mg/kg] | minimal effective dose [1, 6] [mg/kg] | minimal effective dose [1, 7] [mg/kg] | LD50 at 144 h [2, 8] [mg/kg] | antiallergic activity [3]
CCCCOc1cc(C)cc2cc(-c3nnn[nH]3)c(=O)oc12 [Example 2, 8-n-Butoxy-6-methyl-3-(1H-tetrazol-5-yl)coumarin] | – | 1870 | 0.39 | 0.39 | 1870 | –
Cc1cc(O)c2oc(=O)c(-c3nnn[nH]3)cc2c1 [Example 27, 8-Hydroxy-6-methyl-3-(1H-tetrazol-5-yl)coumarin] | 12.5 | 2000 to 3000 | – | – | – | –
CCCCCCCCCCCCCCCOc1cccc2cc(-c3nnn[nH]3)c(=O)oc12 [Example 14, 8-n-Pentadecyloxy-3-(1H-tetrazol-5-yl)coumarin] | 6.25 | 2000 to 3000 | – | – | – | –
CCCOc1cc(C)cc2cc(-c3nnn[nH]3)c(=O)oc12 [Example 21, 6-Methyl-8-n-propoxy-3-(1H-tetrazol-5-yl)coumarin] | 1.56 | 1000 to 2000 | – | – | – | –
CCOc1cccc2cc(-c3nnn[nH]3)c(=O)oc12 [Example 4, 8-Ethoxy-3-(1H-tetrazol-5-yl)coumarin] | – | 2500 | 6.25 | 6.25 | 2500 | –
COc1cccc2cc(-c3nnn[nH]3)c(=O)oc12 [Example 3, 8-Methoxy-3-(1H-tetrazol-5-yl)coumarin] | 6.25 | 2000 to 3000 | – | – | – | –
COc1cc2cc(-c3nnn[nH]3)c(=O)oc2cc1C [Example 25, 6-Methoxy-7-methyl-3-(1H-tetrazol-5-yl)coumarin] | 12.5 | 500 to 1000 | – | – | – | –
CCCOc1ccc2cc(-c3nnn[nH]3)c(=O)oc2c1 [Example 7, 7-n-Propoxy-3-(1H-tetrazol-5-yl)coumarin] | 6.25 | 2000 to 3000 | – | – | – | –
CCCCCCCCCOc1cccc2cc(-c3nnn[nH]3)c(=O)oc12 [Example 12, 8-n-Nonyloxy-3-(1H-tetrazol-5-yl)coumarin] | 6.25 | 2000 to 3000 | – | – | – | –
C=CCOc1cccc2cc(-c3nnn[nH]3)c(=O)oc12 [Example 16, 8-Allyloxy-3-(1H-tetrazol-5-yl)coumarin] | 1.56 | 2000 to 3000 | – | – | – | –
CCOc1cc2oc(=O)c(-c3nnn[nH]3)cc2cc1CC=C(C)C [Example 29, 7-Ethoxy-6-(3-methyl-2-butenyl)-3-(1H-tetrazol-5-yl)coumarin] | 12.5 | 500 to 1000 | – | – | – | –
CC(C)=CCC/C(C)=C/COc1cccc2cc(-c3nnn[nH]3)c(=O)oc12 [Example 17, 8-Geranyloxy-3-(1H-tetrazol-5-yl)coumarin] | 6.25 | 500 to 1000 | – | – | – | –
CCCCOc1cccc2cc(-c3nnn[nH]3)c(=O)oc12 [Example 8, 8-n-Butoxy-3-(1H-tetrazol-5-yl)coumarin] | – | 2380 | 1.56 | 1.56 | 2380 | –
CCCCCCCCCCCCOc1cccc2cc(-c3nnn[nH]3)c(=O)oc12 [Example 13, 8-n-Dodecyloxy-3-(1H-tetrazol-5-yl)coumarin] | 6.25 | 2000 to 3000 | – | – | – | –
CC(C)CCOc1cccc2cc(-c3nnn[nH]3)c(=O)oc12 [Example 9, 8-Isopentyloxy-3-(1H-tetrazol-5-yl)coumarin] | 0.39 | 1000 to 2000 | – | – | – | –
COc1cc2oc(=O)c(-c3nnn[nH]3)cc2cc1CC=C(C)C [Example 28, 7-Methoxy-6-(3-methyl-2-butenyl)-3-(1H-tetrazol-5-yl)coumarin] | 1.56 | 500 to 1000 | – | – | – | –
